Assay results from US20230085307A1, “PYRIDAZINONE COMPOUND AND HERBICIDE” (NISSAN CHEMICAL CORPORATION, priority 2019, published 2023).

Legend:
green foxtail [1] = assay: Test Example 4: herbicidal effect by soil treatment (Table 19, symbol G); format: in vivo, green foxtail (Setaria viridis); conditions: amount of applied herbicide 320 g/ha
How it was run: (§1)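 Emulsion of test compound, water-diluted to predetermined amount, sprayed on soil after sowing (seed depth ~1.5 cm, sterilized diluvial soil). Greenhouse, 25–30° C. Effect graded at three weeks post-spray.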

chickweed [2] = assay: Test Example 4: herbicidal effect by soil treatment (Table 19, symbol P); format: in vivo, common chickweed (Stellaria media); conditions: amount of applied herbicide 320 g/ha
How it was run: as §1

barnyard grass [3] = assay: Test Example 4: herbicidal effect by soil treatment (Table 19, symbol H); format: in vivo, barnyard grass (Echinochloa crus-galli); conditions: amount of applied herbicide 320 g/ha
How it was run: as §1

velvetleaf [4] = assay: Test Example 4: herbicidal effect by soil treatment (Table 19, symbol M); format: in vivo, velvetleaf (Abutilon theophrasti); conditions: amount of applied herbicide 320 g/ha
How it was run: as §1

barnyard grass [5] = assay: Test Example 5: herbicidal effect by foliage application, plastic box (Table 20, symbol H); format: in vivo, barnyard grass (Echinochloa crus-galli); conditions: foliage application, evaluated three weeks after application
How it was run: (§2)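 Post-emergence foliar test in sterilized diluvial soil. Compound applied as water-diluted emulsion at a predetermined rate to 14-day-old plants; evaluation at three weeks.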

redroot pigweed [6] = assay: Test Example 4: herbicidal effect by soil treatment (Table 19, symbol N); format: in vivo, redroot pigweed (Amaranthus retroflexus); conditions: amount of applied herbicide 320 g/ha
How it was run: as §1

velvetleaf [7] = assay: Test Example 5: herbicidal effect by foliage application, plastic box (Table 20, symbol M); format: in vivo, velvetleaf (Abutilon theophrasti); conditions: foliage application, evaluated three weeks after application
How it was run: as §2

redroot pigweed [8] = assay: Test Example 5: herbicidal effect by foliage application, plastic box (Table 20, symbol N); format: in vivo, redroot pigweed (Amaranthus retroflexus); conditions: foliage application, evaluated three weeks after application
How it was run: as §2

Chinese sprangletop = assay: Test Example 3: herbicidal effect by foliage application, Wagner pot (Table 18, symbol D); format: in vivo, chinese sprangletop (Leptochloa chinensis); conditions: amount of applied herbicide 320 g/ha
How it was run: (§3)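 Plants were sown in alluvial soil held under 0.1–0.5 cm standing water and grown 14 days in a greenhouse at 25–30 °C. An emulsifiable formulation, water-diluted to the set dose, was then sprayed onto the foliage, and effects were scored three weeks later using previously defined criteria.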

Italian ryegrass [9] = assay: Test Example 4: herbicidal effect by soil treatment (Table 19, symbol K); format: in vivo, Italian ryegrass (Lolium multiflorum); conditions: amount of applied herbicide 320 g/ha
How it was run: as §1

wild oat [10] = assay: Test Example 5: herbicidal effect by foliage application, plastic box (Table 20, symbol I); format: in vivo, wild oat (Avena fatua); conditions: foliage application, evaluated three weeks after application
How it was run: as §2

persian speedwell [11] = assay: Test Example 4: herbicidal effect by soil treatment (Table 19, symbol R); format: in vivo, Persian speedwell (Veronica persica); conditions: amount of applied herbicide 320 g/ha
How it was run: as §1

wild oat [12] = assay: Test Example 4: herbicidal effect by soil treatment (Table 19, symbol I); format: in vivo, wild oat (Avena fatua); conditions: amount of applied herbicide 320 g/ha
How it was run: as §1

southern crabgrass [13] = assay: Test Example 5: herbicidal effect by foliage application, plastic box (Table 20, symbol F); format: in vivo, southern crabgrass (Digitaria ciliaris); conditions: foliage application, evaluated three weeks after application
How it was run: as §2

southern crabgrass [14] = assay: Test Example 4: herbicidal effect by soil treatment (Table 19, symbol F); format: in vivo, southern crabgrass (Digitaria ciliaris); conditions: amount of applied herbicide 320 g/ha
How it was run: as §1

rice flat sedge = assay: Test Example 3: herbicidal effect by foliage application, Wagner pot (Table 18, symbol E); format: in vivo, rice flat sedge (Cyperus iria); conditions: amount of applied herbicide 320 g/ha
How it was run: as §3

chickweed [15] = assay: Test Example 5: herbicidal effect by foliage application, plastic box (Table 20, symbol P); format: in vivo, common chickweed (Stellaria media); conditions: foliage application, evaluated three weeks after application
How it was run: as §2

green foxtail [16] = assay: Test Example 5: herbicidal effect by foliage application, plastic box (Table 20, symbol G); format: in vivo, green foxtail (Setaria viridis); conditions: foliage application, evaluated three weeks after application
How it was run: as §2

false cleavers = assay: Test Example 4: herbicidal effect by soil treatment (Table 19, symbol Q); format: in vivo, false cleavers (Galium spurium); conditions: amount of applied herbicide 320 g/ha
How it was run: as §1

barnyard grass [17] = assay: Test Example 3: herbicidal effect by foliage application, Wagner pot (Table 18, symbol H); format: in vivo, barnyard grass (Echinochloa crus-galli); conditions: amount of applied herbicide 320 g/ha
How it was run: as §3

blackgrass [18] = assay: Test Example 4: herbicidal effect by soil treatment (Table 19, symbol J); format: in vivo, blackgrass (Alopecurus myosuroides); conditions: amount of applied herbicide 320 g/ha
How it was run: as §1

blackgrass [19] = assay: Test Example 5: herbicidal effect by foliage application, plastic box (Table 20, symbol J); format: in vivo, blackgrass (Alopecurus myosuroides); conditions: foliage application, evaluated three weeks after application
How it was run: as §2

persian speedwell [20] = assay: Test Example 5: herbicidal effect by foliage application, plastic box (Table 20, symbol R); format: in vivo, Persian speedwell (Veronica persica); conditions: foliage application, evaluated three weeks after application
How it was run: as §2

windgrass [21] = assay: Test Example 5: herbicidal effect by foliage application, plastic box (Table 20, symbol L); format: in vivo, windgrass (Apera spica-venti); conditions: foliage application, evaluated three weeks after application
How it was run: as §2

lambsquarters [22] = assay: Test Example 4: herbicidal effect by soil treatment (Table 19, symbol O); format: in vivo, lambsquarters (Chenopodium album); conditions: amount of applied herbicide 320 g/ha
How it was run: as §1

windgrass [23] = assay: Test Example 4: herbicidal effect by soil treatment (Table 19, symbol L); format: in vivo, windgrass (Apera spica-venti); conditions: amount of applied herbicide 320 g/ha
How it was run: as §1

Italian ryegrass [24] = assay: Test Example 5: herbicidal effect by foliage application, plastic box (Table 20, symbol K); format: in vivo, Italian ryegrass (Lolium multiflorum); conditions: foliage application, evaluated three weeks after application
How it was run: as §2

lambsquarters [25] = assay: Test Example 5: herbicidal effect by foliage application, plastic box (Table 20, symbol O); format: in vivo, lambsquarters (Chenopodium album); conditions: foliage application, evaluated three weeks after application
How it was run: as §2

COc1cc(F)ccc1-c1sc2ccc(C(C)=NOC(C)C)cc2c1-c1c(O)c(C)nn(C)c1=O [2-195]
G: green foxtail, herbicidal effect rating (green foxtail [1]): 0 (Herbicidal rate of 5% or less (almost no effect)) | P: chickweed, herbicidal effect rating (chickweed [2]): 0 (Herbicidal rate of 5% or less (almost no effect)) | H: barnyard grass, herbicidal effect rating (barnyard grass [3]): 0 (Herbicidal rate of 5% or less (almost no effect)) | M: velvetleaf, herbicidal effect rating (velvetleaf [4]): 0 (Herbicidal rate of 5% or less (almost no effect)) | herbicidal effect on H: barnyard grass (criteria 0-5) (barnyard grass [5]; 320 g/ha): 2 (Herbicidal rate of 20% or more and less than 40%) | N: redroot pigweed, herbicidal effect rating (redroot pigweed [6]): 3 (Herbicidal rate of 40% or more and less than 70%) | herbicidal effect on M: velvetleaf (criteria 0-5) (velvetleaf [7]; 320 g/ha): 2 (Herbicidal rate of 20% or more and less than 40%) | herbicidal effect on N: redroot pigweed (criteria 0-5) (redroot pigweed [8]; 320 g/ha): 3 (Herbicidal rate of 40% or more and less than 70%) | herbicidal effect on D: Chinese sprangletop (Chinese sprangletop): 0 (Herbicidal rate of 5% or less (almost no effect)) | K: Italian ryegrass, herbicidal effect rating (Italian ryegrass [9]): 0 (Herbicidal rate of 5% or less (almost no effect)) | herbicidal effect on I: wild oat (criteria 0-5) (wild oat [10]; 320 g/ha): 0 (Herbicidal rate of 5% or less (almost no effect)) | R: persian speedwell, herbicidal effect rating (persian speedwell [11]): 4 (Herbicidal rate of 70% or more and less than 90%) | I: wild oat, herbicidal effect rating (wild oat [12]): 0 (Herbicidal rate of 5% or less (almost no effect)) | herbicidal effect on F: southern crabgrass (criteria 0-5) (southern crabgrass [13]; 320 g/ha): 2 (Herbicidal rate of 20% or more and less than 40%) | F: southern crabgrass, herbicidal effect rating (southern crabgrass [14]): 0 (Herbicidal rate of 5% or less (almost no effect)) | herbicidal effect on E: rice flat sedge (rice flat sedge): 0 (Herbicidal rate of 5% or less (almost no effect)) | herbicidal effect on P: chickweed (criteria 0-5) (chickweed [15]; 320 g/ha): 5 (Herbicidal rate of 90% or more (almost completely withered)) | herbicidal effect on G: green foxtail (criteria 0-5) (green foxtail [16]; 320 g/ha): 0 (Herbicidal rate of 5% or less (almost no effect)) | Q: false cleavers, herbicidal effect rating (false cleavers): 0 (Herbicidal rate of 5% or less (almost no effect)) | herbicidal effect on H: barnyard grass (barnyard grass [17]): 3 (Herbicidal rate of 40% or more and less than 70%) | J: blackgrass, herbicidal effect rating (blackgrass [18]): 0 (Herbicidal rate of 5% or less (almost no effect)) | herbicidal effect on J: blackgrass (criteria 0-5) (blackgrass [19]; 320 g/ha): 4 (Herbicidal rate of 70% or more and less than 90%) | herbicidal effect on R: persian speedwell (criteria 0-5) (persian speedwell [20]; 320 g/ha): 5 (Herbicidal rate of 90% or more (almost completely withered)) | herbicidal effect on L: windgrass (criteria 0-5) (windgrass [21]; 320 g/ha): 0 (Herbicidal rate of 5% or less (almost no effect)) | O: lambsquarters, herbicidal effect rating (lambsquarters [22]): 3 (Herbicidal rate of 40% or more and less than 70%) | L: windgrass, herbicidal effect rating (windgrass [23]): 0 (Herbicidal rate of 5% or less (almost no effect)) | herbicidal effect on K: Italian ryegrass (criteria 0-5) (Italian ryegrass [24]; 320 g/ha): 0 (Herbicidal rate of 5% or less (almost no effect)) | herbicidal effect on O: lambsquarters (criteria 0-5) (lambsquarters [25]; 320 g/ha): 4 (Herbicidal rate of 70% or more and less than 90%)

Cc1nn(C)c(=O)c(-c2c(-c3ccc(OC(F)F)cc3)sc3ccc(F)cc23)c1OC(=O)N1CCOCC1 [2-290]
herbicidal effect on G: green foxtail (green foxtail [1]): 0 (Herbicidal rate of 5% or less (almost no effect)) | herbicidal effect on P: chickweed (chickweed [2]): 0 (Herbicidal rate of 5% or less (almost no effect)) | herbicidal effect on H: barnyard grass (barnyard grass [3]): 0 (Herbicidal rate of 5% or less (almost no effect)) | herbicidal effect on M: velvetleaf (velvetleaf [4]): 0 (Herbicidal rate of 5% or less (almost no effect)) | H: barnyard grass, herbicidal effect (criteria 0-5) (barnyard grass [5]; AAH 320 g/ha): 2 (Herbicidal rate of 20% or more and less than 40%) | herbicidal effect on N: redroot pigweed (redroot pigweed [6]): 1 (Herbicidal rate of 5% or more and less than 20%) | M: velvetleaf, herbicidal effect (criteria 0-5) (velvetleaf [7]; AAH 320 g/ha): 4 (Herbicidal rate of 70% or more and less than 90%) | N: redroot pigweed, herbicidal effect (criteria 0-5) (redroot pigweed [8]; AAH 320 g/ha): 5 (Herbicidal rate of 90% or more (almost completely withered)) | herbicidal effect on D: Chinese sprangletop (Chinese sprangletop): 4 (Herbicidal rate of 70% or more and less than 90%) | herbicidal effect on K: Italian ryegrass (Italian ryegrass [9]): 0 (Herbicidal rate of 5% or less (almost no effect)) | I: wild oat, herbicidal effect (criteria 0-5) (wild oat [10]; AAH 320 g/ha): 0 (Herbicidal rate of 5% or less (almost no effect)) | herbicidal effect on R: persian speedwell (persian speedwell [11]): 3 (Herbicidal rate of 40% or more and less than 70%) | herbicidal effect on I: wild oat (wild oat [12]): 0 (Herbicidal rate of 5% or less (almost no effect)) | F: southern crabgrass, herbicidal effect (criteria 0-5) (southern crabgrass [13]; AAH 320 g/ha): 0 (Herbicidal rate of 5% or less (almost no effect)) | herbicidal effect on F: southern crabgrass (southern crabgrass [14]): 0 (Herbicidal rate of 5% or less (almost no effect)) | herbicidal effect on E: rice flat sedge (rice flat sedge): 3 (Herbicidal rate of 40% or more and less than 70%) | P: chickweed, herbicidal effect (criteria 0-5) (chickweed [15]; AAH 320 g/ha): 5 (Herbicidal rate of 90% or more (almost completely withered)) | G: green foxtail, herbicidal effect (criteria 0-5) (green foxtail [16]; AAH 320 g/ha): 2 (Herbicidal rate of 20% or more and less than 40%) | herbicidal effect on Q: false cleavers (false cleavers): 0 (Herbicidal rate of 5% or less (almost no effect)) | herbicidal effect on H: barnyard grass (barnyard grass [17]): 4 (Herbicidal rate of 70% or more and less than 90%) | herbicidal effect on J: blackgrass (blackgrass [18]): 0 (Herbicidal rate of 5% or less (almost no effect)) | J: blackgrass, herbicidal effect (criteria 0-5) (blackgrass [19]; AAH 320 g/ha): 0 (Herbicidal rate of 5% or less (almost no effect)) | R: persian speedwell, herbicidal effect (criteria 0-5) (persian speedwell [20]; AAH 320 g/ha): 5 (Herbicidal rate of 90% or more (almost completely withered)) | L: windgrass, herbicidal effect (criteria 0-5) (windgrass [21]; AAH 320 g/ha): 0 (Herbicidal rate of 5% or less (almost no effect)) | herbicidal effect on O: lambsquarters (lambsquarters [22]): 3 (Herbicidal rate of 40% or more and less than 70%) | herbicidal effect on L: windgrass (windgrass [23]): 0 (Herbicidal rate of 5% or less (almost no effect)) | K: Italian ryegrass, herbicidal effect (criteria 0-5) (Italian ryegrass [24]; AAH 320 g/ha): 0 (Herbicidal rate of 5% or less (almost no effect)) | O: lambsquarters, herbicidal effect (criteria 0-5) (lambsquarters [25]; AAH 320 g/ha): 5 (Herbicidal rate of 90% or more (almost completely withered))
